Here are results for 31 compounds from PMC9106008, “Design, Synthesis and Biological Evaluation of N-phenylindole Derivatives as Pks13 Inhibitors againstMycobacterium tuberculosis” (Molecules, 2022).

Values after ≈ are worked out from the molar mass of the structure shown. Like-named read-outs stand apart in the source and are kept apart here. Bounds are passed on as bounds.

The target in one data set is Pks13-TE (Mycobacterium tuberculosis, UniProt I6X8D2). In words: biochemical. Type of data set: binding. Particulars: Pks13-TE 30 µM, 3% DMSO, average of three measurements; for ΔTm at 150 µM: compound 150 µM (1:5); for ΔTm at 300 µM: compound 300 µM (1:10).
Chain of Pks13-TE (I6X8D2 1451-1733): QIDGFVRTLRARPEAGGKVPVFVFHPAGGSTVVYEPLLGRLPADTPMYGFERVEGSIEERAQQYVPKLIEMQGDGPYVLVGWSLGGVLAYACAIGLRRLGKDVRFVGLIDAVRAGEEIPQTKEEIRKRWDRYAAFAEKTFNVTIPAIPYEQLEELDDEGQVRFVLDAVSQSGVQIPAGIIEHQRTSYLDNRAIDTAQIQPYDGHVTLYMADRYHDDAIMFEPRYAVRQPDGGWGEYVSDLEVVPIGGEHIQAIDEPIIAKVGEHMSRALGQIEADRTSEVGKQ
The test system of data set [1] is Mtb H37Rv strain. As to the kind of experiment: microplate alamar blue assay (MABA), MIC. Type of data set: cell-based, Mycobacterium tuberculosis. The settings on record: lowest concentration leading to at least 90% inhibition of bacterial growth signal, average of three measurements.
The subject of data set [2] is Mtb H37Rv strain. The settings on record: MABA, cited from earlier work.
The conditions of data set [3]: human, microsomes, 0.1 µM, pH 7.4.
Data set [4] can be described thus: liver microsome stability assay. The settings on record: for T1/2 / Remaining (T = 60 min): human liver microsomes; for T1/2: 0.1 µM compound, NADPH 1 mM, 37 °C; for Remaining (T = 60 min): 60 min incubation.
[5] abbreviates: Mycobacterium tuberculosis, H37RV, read-out: MIC.

For `CCOC(=O)c1c(-c2ccc(O)cc2)[nH]c2ccc(O)c(CN3CCCCC3)c12` [Compound 14, Ethyl 5-hydroxy-2-(4-hydroxyphenyl)-4-(piperidin-1-ylmethyl)-1H-indole-3-carboxylate], at Pks13-TE, the ΔTm at 150 µM stood at 5.5 ± 0.04 °C and the ΔTm at 300 µM turned out to be 4.9 ± 0.02 °C. Turning to `CNC(=O)c1c(-c2ccc(O)cc2)n(-c2ccccc2)c2ccc(O)c(CN3CCCCC3)c12` [Compound 24, 5-hydroxy-2-(4-hydroxyphenyl)-N-methyl-1-phenyl-4-(piperidin-1-ylmethyl)-1H-indole-3-carboxamide], in the data set with Mtb H37Rv strain [1] (setting [5]), the MIC was 4 µg/mL (≈ 8.78 µM). For the compound `CCOC(=O)c1c(C)n(-c2ccc(C)cc2)c2ccc(O)c(CN3CCCCC3)c12` [Compound 31, Ethyl 5-hydroxy-2-methyl-4-(piperidin-1-ylmethyl)-1-(p-tolyl)-1H-indole-3-carboxylate], the minimum inhibitory concentration (MIC) in the data set with Mtb H37Rv strain [1] (setting [5]) was 0.5 to 8 µg/mL (≈ 1.23 to 19.7 µM); in the data set with Mtb H37Rv strain [1], 1 µg/mL (≈ 2.46 µM).

`O=c1oc2cc(O)ccc2c2oc3ccc(O)c(CN4CCCCC4)c3c12` [Compound 7, reference compound]: at Pks13-TE, the ΔTm at 150 µM was determined as 11.4 ± 0.03 °C and the ΔTm at 300 µM worked out at 10.5 ± 0.01 °C. Besides, in the data set on Mtb H37Rv strain [2] (reference compounds for comparison), the MIC is given as 0.0039 µg/mL (≈ 0.0107 µM). Consider `CC(=O)c1c(-c2ccc(O)cc2)n(-c2ccccc2)c2ccc(O)c(CN3CCCCC3)c12` [Compound 20, 1-(5-hydroxy-2-(4-hydroxyphenyl)-1-phenyl-4-(piperidin-1-ylmethyl)-1H-indol-3-yl) ethan-1-one], for which the MIC with Mtb H37Rv strain [1] (setting [5]) turned out to be 16 µg/mL (≈ 36.3 µM).

As for `CC(=O)c1c(C)n(-c2ccc(N(C)C)cc2)c2ccc(O)c(CN3CCCCC3)c12` [Compound 50, 1-(1-(4-(dimethylamino)phenyl)-5-hydroxy-2-methyl-4-(piperidin-1-ylmethyl)-1H-indol-3-yl)ethan-1-one], the MIC with Mtb H37Rv strain [1] (setting [5]) is 0.5 µg/mL (≈ 1.23 µM). On the same count and under the same terms, next, `CC(=O)c1c(C)n(-c2ccc(N(C)C)cc2)c2ccc(O)c(CN(C)C)c12` [Compound 51, 1-(4-((dimethylamino)methyl)-1-(4-(dimethylamino)phenyl)-5-hydroxy-2-methyl-1H-indol-3-yl)ethan-1-one]: 2 µg/mL (≈ 5.47 µM). Take `CC(=O)c1c(C)n(-c2ccc(Br)cc2)c2ccc(O)c(CN3CCCCC3)c12` [Compound 58, 1-(1-(4-bromophenyl)-5-hydroxy-2-methyl-4-(piperidin-1-ylmethyl)-1H-indol-3-yl)ethan-1-one]: in the data set with Mtb H37Rv strain [1] (setting [5]), the MIC worked out at 0.125 µg/mL (≈ 0.283 µM). In addition, at Pks13-TE, the thermal shift (ΔTm) at 150 µM worked out at 9.5 ± 0.04 °C and the thermal shift (ΔTm) at 300 µM is 7.6 ± 0.01 °C. Besides, in data set [3], the “CLint(liver)” value was 21.5 mL/min/kg and the “CLint(mic)” value was 23.9 µL/min/mg. Besides, the “Remaining (T = 60 min)” value in data set [3] (1 h) is reported as 47.3%. This compound displayed a T1/2 in data set [4] of 58.0 min. Consider `O=C(O)Cc1ccccc1Nc1c(Cl)cccc1Cl` [Diclofenac], for which the “Remaining (T = 60 min)” value in data set [4] was 0.1%. Besides, in data set [4] (human, scaled from CLint(mic) with 45 mg microsomal protein/g liver, 20 g liver/kg), the “CLint(liver)” value was 223.1 mL/min/kg. Regarding `CCOC(=O)c1c(-c2ccc(OC)cc2)[nH]c2ccc(O)c(CN3CCCCC3)c12` [Compound 13, Ethyl 5-hydroxy-2-(4-methoxyphenyl)-4-(piperidin-1-ylmethyl)-1H-indole-3-carboxylate], in the data set with Mtb H37Rv strain [1] (setting [5]), the MIC came to 32 µg/mL (≈ 78.3 µM). Consider `CCOC(=O)c1c(-c2ccccc2)[nH]c2ccc(O)c(CN3CCCCC3)c12` [Compound 9], for which the MIC in the data set on Mtb H37Rv strain [2] (reference compound for comparison) is 32 µg/mL (≈ 84.6 µM). In the case of `CCNC(=O)c1c(-c2ccc(OC)cc2)n(-c2ccccc2)c2ccc(O)c(CN3CCCCC3)c12` [Compound 23, N-ethyl-5-hydroxy-2-(4-methoxyphenyl)-1-phenyl-4-(piperidin-1-ylmethyl)-1H-indole-3-carboxamide], the MIC in the data set with Mtb H37Rv strain [1] (setting [5]) was determined as 16 µg/mL (≈ 33.1 µM).

Turning to `CNC(=O)c1c(C)n(-c2ccccc2)c2ccc(O)c(CN3CCCCC3)c12` [Compound 29, 5-hydroxy-N,2-dimethyl-1-phenyl-4-(piperidin-1-ylmethyl)-1H-indole-3-carboxamide], the MIC in the data set on Mtb H37Rv strain [1] (setting [5]) is > 64 µg/mL; with Mtb H37Rv strain [1] it was >64 µg/mL. Consider `CC(=O)c1c(C)n(-c2ccc(C(C)(C)C)cc2)c2ccc(O)c(CN3CCCCC3)c12` [Compound 55, 1-(1-(4-(tert-butyl)phenyl)-5-hydroxy-2-methyl-4-(piperidin-1-ylmethyl)-1H-indol-3-yl)ethan-1-one], for which the minimal inhibitory concentration (MIC) with Mtb H37Rv strain [1] (setting [5]) was determined as 0.125 µg/mL (≈ 0.299 µM). For the compound “Ethyl 1-(4-(tert-butyl)phenyl)-5-hydroxy-2-methyl-4-(piperidin-1-ylmethyl)-1H-indole-3-carboxylate [Compound 57]”, in the data set with Mtb H37Rv strain [1], the MIC is 0.5 µg/mL.

With `CNC(=O)c1c(-c2ccc(OC)cc2)n(-c2ccccc2)c2ccc(O)c(CN3CCCCC3)c12` [Compound 22, 5-hydroxy-2-(4-methoxyphenyl)-N-methyl-1-phenyl-4-(piperidin-1-ylmethyl)-1H-indole-3-carboxamide], the minimum inhibitory concentration (MIC) in the data set with Mtb H37Rv strain [1] (setting [5]) was 16 µg/mL (≈ 34.1 µM). `CC(=O)c1c(C)n(-c2ccc(-c3ccccc3)cc2)c2ccc(O)c(CN3CCCCC3)c12` [Compound 45, 1-(1-([1,1′-biphenyl]-4-yl)-5-hydroxy-2-methyl-4-(piperidin-1-ylmethyl)-1H-indol-3-yl)ethan-1-one]: the minimal inhibitory concentration (MIC) in the data set with Mtb H37Rv strain [1] (setting [5]) was 0.0625 µg/mL (≈ 0.143 µM). Moreover, at Pks13-TE, the shift in melting temperature (ΔTm) at 150 µM worked out at 14 ± 0.04 °C and the ΔTm at 300 µM is 13.2 ± 0.65 °C. For the compound `C[C@]12CC[C@H]3[C@@H](CCC4=CC(=O)CC[C@@]43C)[C@@H]1CC[C@@H]2O` [Testosterone], in data set [4], the T1/2 is listed as […] and the “Remaining (T = 60 min)” value was found to be […]. Further, the CLint scaled at 0.1 µM in data set [4] (human, microsomes, pH 7.4) was determined as […]. On to `CC(=O)c1c(C)n(-c2ccc(N(C)C)cc2)c2ccc(O)c(CN3CCCC3)c12` [Compound 52, 1-(1-(4-(dimethylamino)phenyl)-5-hydroxy-2-methyl-4-(pyrrolidin-1-ylmethyl)-1H-indol-3-yl)ethan-1-one], for which the minimal inhibitory concentration (MIC) in the data set with Mtb H37Rv strain [1] (setting [5]) was determined as 0.5 µg/mL (≈ 1.28 µM). For the same compound, at Pks13-TE, the ΔTm at 150 µM was found to be 11.4 ± 0.02 °C and the ΔTm at 300 µM is 10.3 ± 0.04 °C. The matching figures for `CCOC(=O)c1c(C)n(-c2ccccc2)c2ccc(O)c(CN3CCCCC3)c12` [Compound 28, Ethyl 5-hydroxy-2-methyl-1-phenyl-4-(piperidin-1-ylmethyl)-1H-indole-3-carboxylate]: 8 µg/mL (≈ 20.4 µM), 8.6 ± 0.01 °C and 7.8 ± 0.04 °C. Turning to `CCOC(=O)c1c(C)n(-c2ccc(N(C)C)cc2)c2ccc(O)c(CN3CCCCC3)c12` [Compound 49, Ethyl 1-(4-(dimethylamino)phenyl)-5-hydroxy-2-methyl-4-(piperidin-1-ylmethyl)-1H-indole-3-carboxylate], the MIC in the data set on Mtb H37Rv strain [1] (setting [5]) was 0.5 to 8 µg/mL (≈ 1.15 to 18.4 µM); against Mtb H37Rv strain [1], 1 µg/mL (≈ 2.3 µM). As for `CCOC(=O)c1c(C)n(-c2ccc(OC)cc2)c2ccc(O)c(CN3CCCCC3)c12` [Compound 34, Ethyl 5-hydroxy-1-(4-methoxyphenyl)-2-methyl-4-(piperidin-1-ylmethyl)-1H-indole-3-carboxylate], the minimal inhibitory concentration (MIC) was 0.5 to 8 µg/mL (≈ 1.18 to 18.9 µM) in the data set with Mtb H37Rv strain [1] (setting [5]) and 1 µg/mL (≈ 2.37 µM) against Mtb H37Rv strain [1].

For `CCOC(=O)c1c(C)n(-c2ccc(F)cc2)c2ccc(O)c(CN3CCCCC3)c12` [Compound 37, Ethyl 1-(4-fluorophenyl)-5-hydroxy-2-methyl-4-(piperidin-1-ylmethyl)-1H-indole-3-carboxylate], the MIC in the data set with Mtb H37Rv strain [1] (setting [5]) is 0.5 to 8 µg/mL (≈ 1.22 to 19.5 µM); against Mtb H37Rv strain [1] it was 1 µg/mL (≈ 2.44 µM). With `CC(=O)c1c(C)n(-c2ccc(C(C)C)cc2)c2ccc(O)c(CN3CCCCC3)c12` [Compound 54, 1-(5-hydroxy-1-(4-isopropylphenyl)-2-methyl-4-(piperidin-1-ylmethyl)-1H-indol-3-yl)ethan-1-one], the minimal inhibitory concentration (MIC) with Mtb H37Rv strain [1] (setting [5]) is 0.125 µg/mL (≈ 0.309 µM). With `CC(=O)c1c(C)n(-c2ccc(C(C)(C)C)cc2)c2ccc(O)c(CN3CCCC3)c12` [Compound 56, 1-(1-(4-(tert-butyl)phenyl)-5-hydroxy-2-methyl-4-(pyrrolidin-1-ylmethyl)-1H-indol-3-yl)ethan-1-one], in the data set on Mtb H37Rv strain [1] (setting [5]), the MIC is 0.25 µg/mL (≈ 0.618 µM).

For the compound `CCOC(=O)c1c(-c2ccc(O)cc2)n(-c2ccccc2)c2ccc(O)c(CN3CCCCC3)c12` [Compound 18, Ethyl 5-hydroxy-2-(4-hydroxyphenyl)-1-phenyl-4-(piperidin-1-ylmethyl)-1H-indole-3-carboxylate], the minimum inhibitory concentration (MIC) in the data set on Mtb H37Rv strain [1] (setting [5]) was 2 to 32 µg/mL (≈ 4.25 to 68 µM); with Mtb H37Rv strain [1], 2 µg/mL (≈ 4.25 µM). `CNC(=O)c1c(C)n(-c2ccc(OC)cc2)c2ccc(O)c(CN3CCCCC3)c12` [Compound 30, 5-hydroxy-1-(4-methoxyphenyl)-N,2-dimethyl-4-(piperidin-1-ylmethyl)-1H-indole-3-carboxamide]: in the data set on Mtb H37Rv strain [1] (setting [5]), the minimal inhibitory concentration (MIC) worked out at 16 µg/mL (≈ 39.3 µM). For `CC(=O)c1c(C)n(-c2ccc(N(C)C)cc2)c2ccc(O)c(CN3CCC(C)CC3)c12` [Compound 53, 1-(1-(4-(dimethylamino)phenyl)-5-hydroxy-2-methyl-4-((4-methylpiperidin-1-yl)methyl)-1H-indol-3-yl)ethan-1-one], the minimum inhibitory concentration (MIC) in the data set with Mtb H37Rv strain [1] (setting [5]) is 1 µg/mL (≈ 2.38 µM). Still for that read-out and setting: next, `CCNC(=O)c1c(-c2ccc(O)cc2)n(-c2ccccc2)c2ccc(O)c(CN3CCCCC3)c12` [Compound 25, N-ethyl-5-hydroxy-2-(4-hydroxyphenyl)-1-phenyl-4-(piperidin-1-ylmethyl)-1H-indole-3-carboxamide]: 8 µg/mL (≈ 17 µM); `COc1ccc(-c2c(C(C)=O)c3c(CN4CCCCC4)c(O)ccc3n2-c2ccccc2)cc1` [Compound 19, 1-(5-hydroxy-2-(4-methoxyphenyl)-1-phenyl-4-(piperidin-1-ylmethyl)-1H-indol-3-yl) ethan-1-one]: 4 µg/mL (≈ 8.8 µM); `CCOC(=O)c1c(-c2ccc(OC)cc2)n(-c2ccccc2)c2ccc(O)c(CN3CCCCC3)c12` [Compound 17, Ethyl 5-hydroxy-2-(4-methoxyphenyl)-1-phenyl-4-(piperidin-1-ylmethyl)-1H-indole-3-carboxylate]: 4 µg/mL (≈ 8.25 µM).

In general, ΔTm refers to the shift of the melting midpoint relative to a reference. In general, MIC refers to the lowest concentration that inhibits growth of the organism. What is called CLint scaled is the rate of metabolic loss divided by the concentration. Low readings indicate slow turnover, high ones rapid turnover.
